Entries after “also recorded” stand apart in the source; their conditions may differ.
Columns and labels:
[1] = tested on: CHT hematopoiesis (HSPC markers cmyb and runx1 in the CHT); test: Zebrafish embryo chemical treatment and dose matrices, whole mount in situ hybridization of cmyb/runx1 in the CHT; type: in vivo; settings: for cmyb/runx1 expression in the CHT (CHT hematopoiesis): agent alone, treatment from 48 hpf, 72 hpf embryos; for rescue of the effect of 25 μM W146 on cmyb/runx1 expression: addition of agent to W146; for Experimental data: concentration of S1PR1 modulating agent in the combination effective at increasing HSC engraftment / Experimental data: concentration of S1PR1 modulating agent in the combination effective at increasing HSC mobilization: combination with AMD3100; for mobilization of HSC from the bone marrow in vivo: combination with AMD3100 in specific ratios
Protocol: Transgenic zebrafish embryos were intercrossed and selected using epifluorescence (e.g. Runx1+23:EGFP, cmyb:EGFP^4, cd41:EGFP^2, kdrl:DsRed2^31). Live imaging was performed using a spinning disk confocal microscope with an incubated chamber. Zebrafish embryos were mounted and imaged as previously described. Live mouse fetal liver explants were prepared as previously described for aorta-gonad-mesonephros tissue^10. Image processing was done primarily with Fluorender^32 and ImageJ, which included the MTrackJ plugin^33 for manual cell tracking. For chemical screening and dose matrices, stage-matched AB embryos were dechorionated and arrayed 8-10/well in 96-well mesh-bottomed plates (Millipore). Embryos were treated from 48-72 hpf by placement directly in 96-well receiver plates containing small molecules diluted in E3 media+1% DMSO. Embryos were checked for circulation before fixation. Whole mount in situ hybridization was performed as previously described^34, with the addition of 0.2% glutaraldehyde to 4% formaldehyde at the post-fixation step. […] Lineage tracing was performed by injecting cd41:EGFP positive embryos with caged fluorescein conjugated to dextran (MW 10000). Embryos were uncaged in the DA at 28 hpf with a UV laser. Embryos were raised to 46 hpf in E3 media or E3+S1PR1 antagonist W146 (10 μM), then fixed for antibody staining to detect double positive cd41:EGFP and uncaged FITC HSPCs. Receptor fusion cDNAs (25 pg) were injected into one-cell embryos with Tol2 RNA (15 pg). Flow cytometry was performed using a LSR II and cells were sorted using a FACSAria (BD Biosciences). Flow cytometry data was analyzed using FACSDiva and FlowJo software.
Having followed newly born aortic HSPCs to the intermediate tissue, the inventors assessed the signaling pathways involved in embryonic migration. The inventors designed a chemical genetic screen to introduce small molecules to the zebrafish embryo from the peak window of HSPC migration to the CHT (48-72 hpf).

HSPCs in the CHT [2] = test: Lineage tracing of HSPCs from DA to CHT (cd41:EGFP and uncaged FITC); type: in vivo, zebrafish; settings: W146 10 μM, versus control
Protocol: Transgenic zebrafish embryos were intercrossed and selected using epifluorescence (e.g. Runx1+23:EGFP, cmyb:EGFP^4, cd41:EGFP^2, kdrl:DsRed2^31). Live imaging was performed using a spinning disk confocal microscope with an incubated chamber. Zebrafish embryos were mounted and imaged as previously described. Live mouse fetal liver explants were prepared as previously described for aorta-gonad-mesonephros tissue^10. Image processing was done primarily with Fluorender^32 and ImageJ, which included the MTrackJ plugin^33 for manual cell tracking. For chemical screening and dose matrices, stage-matched AB embryos were dechorionated and arrayed 8-10/well in 96-well mesh-bottomed plates (Millipore). Embryos were treated from 48-72 hpf by placement directly in 96-well receiver plates containing small molecules diluted in E3 media+1% DMSO. Embryos were checked for circulation before fixation. Whole mount in situ hybridization was performed as previously described^34, with the addition of 0.2% glutaraldehyde to 4% formaldehyde at the post-fixation step. Morpholino (s1pr1/edg1 ATG-MO^23 obtained from Gene Tools, LLC) was injected into one-cell Tu or cmyb:EGFP; kdrl:DsRed2 transgenic embryos at a 1 ng dose (higher doses stop circulation). […] Flow cytometry data was analyzed using FACSDiva and FlowJo software. […]

HSPCs in the CHT [3] = test: Time-lapse live imaging and cell tracking in the CHT (Runx1+23:EGFP; kdrl:DsRed2); type: in vivo, zebrafish
Protocol: Transgenic zebrafish embryos were intercrossed and selected using epifluorescence (e.g. Runx1+23:EGFP, cmyb:EGFP^4, cd41:EGFP^2, kdrl:DsRed2^31). Live imaging was performed using a spinning disk confocal microscope with an incubated chamber. Zebrafish embryos were mounted and imaged as previously described. Live mouse fetal liver explants were prepared as previously described for aorta-gonad-mesonephros tissue^10. Image processing was done primarily with Fluorender^32 and ImageJ, which included the MTrackJ plugin^33 for manual cell tracking. For chemical screening and dose matrices, stage-matched AB embryos were dechorionated and arrayed 8-10/well in 96-well mesh-bottomed plates (Millipore). Embryos were treated from 48-72 hpf by placement directly in 96-well receiver plates containing small molecules diluted in E3 media+1% DMSO. Embryos were checked for circulation before fixation. Whole mount in situ hybridization was performed as previously described^34, with the addition of 0.2% glutaraldehyde to 4% formaldehyde at the post-fixation step. Morpholino (s1pr1/edg1 ATG-MO^23 obtained from Gene Tools, LLC) was injected into one-cell Tu or cmyb:EGFP; kdrl:DsRed2 transgenic embryos at a 1 ng dose (higher doses stop circulation). Lineage tracing was performed by injecting cd41:EGFP positive embryos with caged fluorescein conjugated to dextran (MW 10000). Embryos were uncaged in the DA at 28 hpf with a UV laser. Embryos were raised to 46 hpf in E3 media or E3+S1PR1 antagonist W146 (10 μM), then fixed for antibody staining to detect double positive cd41:EGFP and uncaged FITC HSPCs. Receptor fusion cDNAs (25 pg) were injected into one-cell embryos with Tol2 RNA (15 pg). Flow cytometry was performed using a LSR II and cells were sorted using a FACSAria (BD Biosciences). Flow cytometry data was analyzed using FACSDiva and FlowJo software.
Time-lapse live imaging. Staged transgenic zebrafish embryos were selected and mounted for imaging in 1% LMP agarose with E3 media and tricaine as described. Pregnant C57/BL6 mice were dissected at E11 (vaginal plug observation was E0). Embryos were removed from the uterus in PBS with 10% FCS and penicillin-streptomycin. Embryos were staged as E11 by counting ˜42 somite pairs. Fetal livers were removed from the embryo and treated as described by Boisset and colleagues (“protocol b”)^10. Zebrafish embryos and fetal liver explants were imaged in MatTek glass bottom dishes (No. 1.5 cover slip). […] Quantification of 12 hours of CHT tracking data per time-lapse movie allowed us to define engrafted cells as stationary (i.e. a speed of <0.31 microns/minute) and resident in the CHT for at least 3 hours, otherwise they were scored as migratory and transient. […]

autoimmune myocarditis = settings: rat model for autoimmune myocarditis; cited from earlier work
[4] = target: T1, endothelial S1P1 receptors (Mus musculus, UniProt O08530); settings: type I diabetic vascular endothelium; cited from earlier work
T1 construct: host or cells: vascular endothelium (as cited)
T1 sequence (O08530 whole entry): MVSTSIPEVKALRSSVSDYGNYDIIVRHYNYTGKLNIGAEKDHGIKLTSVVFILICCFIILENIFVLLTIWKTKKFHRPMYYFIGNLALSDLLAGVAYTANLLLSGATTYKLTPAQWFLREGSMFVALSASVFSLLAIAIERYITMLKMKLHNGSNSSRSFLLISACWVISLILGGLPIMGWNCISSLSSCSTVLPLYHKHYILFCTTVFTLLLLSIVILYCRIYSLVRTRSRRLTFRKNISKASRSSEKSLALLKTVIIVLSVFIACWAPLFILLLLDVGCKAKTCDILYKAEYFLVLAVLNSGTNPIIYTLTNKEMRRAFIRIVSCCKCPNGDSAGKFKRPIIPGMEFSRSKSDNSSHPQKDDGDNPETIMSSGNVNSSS

[5] = target: T1, endothelial S1P1 receptors; settings: cited from earlier work
[6] = in vivo; cited from earlier work
[7] = addition of AUY954, 54 hpf embryos
[8] = dose matrices, agent combined with AMD3100
[9] = W146 10 μM, 38-50 hpf, versus control

SMILES: c1cc(CN2CCCNCCNCCCNCC2)ccc1CN1CCCNCCNCCCNCC1 [AMD3100, 1,1′-[1,4-Phenylenebis(methylene)]bis[1,4,8,11-tetraazacyclotetradecane]]
- cmyb/runx1 expression in the CHT ([1]; AMD3100 25 μM, 54 hpf embryos): greatly decreases
- cmyb/runx1 expression in the CHT (CHT hematopoiesis) [1]: dose-dependently reduces; also recorded: decreases CHT hematopoiesis
- CHT hematopoiesis ([1]; each agent alone at the doses of the effective FTY720/AMD3100 combination): no effect

SMILES: O=C(O)CCNCc1ccc2sc(-c3ccc(-c4ccccc4)c(C(F)(F)F)c3)cc2c1 [AUY954, 3-[[2-[4-phenyl-3-(trifluoromethyl)phenyl]-1-benzothiophen-5-yl]methylamino]propanoic acid]
- CHT score (greatest engraftment in dose matrix) ([1]; 10 μM AMD3100 and 12.5 μM AUY945): +2
- rescue of the cmyb/runx1 decrease caused by 25 μM AMD3100 [1, 7]: partially rescued
- rescue of the effect of 25 μM SKI-2 [1, 7]: rescued
- rescue of the effect of 25 μM W146 on cmyb/runx1 expression ([1]; 54 hpf embryos): rescued
- Experimental data: concentration of S1PR1 modulating agent in the combination effective at increasing HSC engraftment [1]: 12.5 µM
- CHT hematopoiesis [1, 8]: synergistic increases

SMILES: CCCCCCCCCCCCC/C=C/[C@@H](O)[C@@H](N)COP(=O)(O)O [Compound S1P, sphingosine-1-phosphate]
- rescue of the effect of 25 μM W146 on cmyb/runx1 expression ([1]; 54 hpf embryos): rescued
- cmyb/runx1 expression in the CHT (CHT hematopoiesis) [1]: altered the migration pattern of HSPCs; also recorded: alters cmyb/runx1 expression pattern
- CHT hematopoiesis [1, 8]: synergistic increases

SMILES: CCCCCCc1cccc(NC(=O)[C@H](N)CCP(=O)(O)O)c1 [Compound W146, (R)-3-Amino-4-(3-hexylphenylamino)-4-oxobutylphosphonic acid]
- number of lineage traced HSPCs in the CHT (HSPCs in the CHT [2]; embryos raised to 46 hpf): increased
- morphology of lineage traced HSPCs in the CHT (HSPCs in the CHT [2]): morphology that differed from the control; also recorded: morphological changes
- number of engrafted cells (HSPCs in the CHT [3]; [9]): decreased
- percentage of migratory cells (HSPCs in the CHT [3]; [9]): increased
- tracked cells in the CHT (HSPCs in the CHT [3]; [9]): increased
- CHT colonization (HSPCs in the CHT [3]; embryos in the antagonist during imaging): interferes with CHT colonization
- CHT score in dose matrix ([1]; 5 μM AMD3100 and 10 μM W146): greatest CHT score
- cmyb/runx1 expression in the CHT ([1]; W146 25 μM, 54 hpf embryos): decreases
- Experimental data: concentration of S1PR1 modulating agent in the combination effective at increasing HSC engraftment [1]: 10 µM
- Experimental data: concentration of S1PR1 modulating agent in the combination effective at increasing HSC mobilization [1]: 5 μM W146
- mobilization of HSC from the bone marrow in vivo [1]: improves mobilization

SMILES: NC(CO)(CO)CCc1ccc(Sc2cccc(OCc3ccccc3)c2)cc1Cl [KRP-203]
- therapeutic efficacy (autoimmune myocarditis): therapeutic efficacy

SMILES: FC(F)(F)c1cccc(-c2noc(-c3cc(-c4ccccc4)c(C(F)(F)F)s3)n2)c1 [SEW2871, 5-[4-phenyl-5-(trifluoromethyl)-2-thienyl]-3-[3-(trifluoromethyl)phenyl]-1,2,4-oxadiazole]
- proinflammatory monocyte/endothelial interactions [4]: prevents
- protection of the vasculature against TNFα-mediated monocyte/endothelial interactions [5]: protects
- bradycardia [6]: does not induce bradycardia
- CHT score (greatest engraftment in dose matrix) ([1]; 10 μM AMD3100 and 10 μM SEW2871): +2
- Experimental data: concentration of S1PR1 modulating agent in the combination effective at increasing HSC engraftment [1]: 10 µM
- Experimental data: concentration of S1PR1 modulating agent in the combination effective at increasing HSC mobilization [1]: 15 µM
- mobilization of HSC from the bone marrow in vivo [1]: improves mobilization
- CHT hematopoiesis [1, 8]: synergistic increases

SMILES: Oc1ccc(Nc2nc(-c3ccc(Cl)cc3)cs2)cc1 [SKI-2]
- effect of SKI-2 in CHT hematopoiesis assay ([1]; SKI-2 25 μM, 54 hpf embryos): depleting endogenous levels of S1P
- effect on improving engraftment (CHT) ([1]; SKI-2 alone): little effect
